Measured values reported in the supplement of paper PMC10307832.

Legend:
[1] = compound: Cn1c(=O)n(-c2ccc(C(C)(C)C#N)cc2)c2c3cc(-c4cnc5ccccc5c4)ccc3ncc21 [Dactolisib]; experiment: relative viability (nuclei count vs DMSO), 5 days (fraction); higher = more cells survive
Outline: (§1)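 MetaXpress counted nuclei in 4× images of lung cancer cell lines that had been fixed, permeabilised and Hoechst-stained in one step. Before that, cells in 1536-well plates were kept overnight at 37 °C, pinned with five √10-spaced library-drug doses on vehicle-anchored plates, and cultured 5 days without medium change. Viability takes treated-well nuclei over vehicle-well nuclei and uses the median across plates. Plates were accepted only at control CV below 25% and at least one doubling.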

[2] = compound: C1CCC(CC1)N(CCNCCC2=C3C(=C(C=C2)O)NC(=O)CO3)C(=O)CCNCCC4=CC(=C(C=C4)Cl)Cl [AZ505]; experiment: as above
Outline: as §1

Cell Line | relative viability ([1]; 0.002 µM) | relative viability ([1]; 0.006325 µM) | relative viability ([1]; 0.02 µM) | relative viability ([1]; 0.06325 µM) | relative viability ([1]; 0.2 µM) | relative viability ([2]; 0.08 µM) | relative viability ([2]; 0.253 µM) | relative viability ([2]; 0.8 µM) | relative viability ([2]; 2.53 µM) | relative viability ([2]; 8 µM)
201T | 1.02 | 1.01 | 0.992 | 0.863 | 0.636 | 0.962 | 0.998 | 0.98 | 0.974 | 1.01
A549 | 0.995 | 0.871 | 0.729 | 0.225 | 0.182 | 0.864 | 0.985 | 0.93 | 0.968 | 1.04
A-427 | 1.1 | 0.908 | 0.936 | 0.572 | 0.586 | 0.932 | 0.958 | 0.886 | 1.08 | 0.99
ABC-1 | 0.954 | 0.921 | 0.868 | 0.719 | 0.458 | 0.899 | 0.963 | 0.975 | 0.985 | 1.05
BEN | 1.02 | 0.883 | 0.81 | 0.536 | 0.366 | 0.873 | 0.97 | 0.905 | 1.1 | 1.05
CAL-12T | 1.01 | 0.976 | 0.721 | 0.342 | 0.323 | 0.909 | 0.941 | 0.967 | 0.956 | 1.03
COR-L23 | 1.15 | 1.06 | 0.911 | 0.27 | 0.249 | 0.947 | 0.97 | 0.893 | 0.933 | 0.95
COR-L 105 | 0.959 | 0.898 | 0.781 | 0.363 | 0.425 | 0.89 | 0.918 | 0.887 | 0.851 | 1.01
Calu-6 | 1.06 | 0.989 | 1.05 | 0.622 | 0.473 | 0.94 | 1.01 | 0.96 | 0.993 | 1.01
ChaGo-K-1 | 0.963 | 0.964 | 0.945 | 0.909 | 0.868 | 0.959 | 1 | 1.05 | 1.01 | 1.12
EBC-1 | 1.05 | 0.883 | 0.724 | 0.236 | 0.244 | 0.967 | 0.929 | 1.03 | 1.01 | 0.924
EKVX | 1.02 | 0.971 | 0.858 | 0.691 | 0.417 | 0.957 | 0.961 | 0.952 | 0.89 | 1.03
EMC-BAC-2 | 1.07 | 0.924 | 0.88 | 0.636 | 0.494 | 0.948 | 0.789 | 0.923 | 1.03 | 0.987
EPLC-272H | 1.01 | 0.766 | 0.76 | 0.569 | 0.403 | 0.817 | 0.812 | 0.755 | 0.849 | 0.92
H3255 | 1.09 | 0.908 | 0.91 | 0.784 | 0.627 | 0.901 | 1 | 1.01 | 1.06 | 1.03
HARA | 1.08 | 0.982 | 0.928 | 0.601 | 0.369 | 0.792 | 0.758 | 0.915 | 0.873 | 0.847
HCC-15 | 0.98 | 0.974 | 0.985 | 0.635 | 0.422 | 0.938 | 0.963 | 1.03 | 0.956 | 1.1

Cell Line | relative viability ([1]; 0.002 µM) | relative viability ([1]; 0.006325 µM) | relative viability ([1]; 0.02 µM) | relative viability ([1]; 0.06325 µM) | relative viability ([1]; 0.2 µM) | relative viability ([2]; 0.08 µM) | relative viability ([2]; 0.253 µM) | relative viability ([2]; 0.8 µM) | relative viability ([2]; 2.53 µM) | relative viability ([2]; 8 µM)
HCC-44 | 0.979 | 1.01 | 1.03 | 0.688 | 0.929 | 0.951 | 0.945 | 0.934 | 1.01 | 1.02
HCC-78 | 1.06 | 0.909 | 0.829 | 0.657 | 0.387 | 0.794 | 0.775 | 0.861 | 0.937 | 0.978
HCC-366 | 0.975 | 1.04 | 1.05 | 0.734 | 0.569 | 0.982 | 0.956 | 0.99 | 0.897 | 1.01
HCC-827 | 1.06 | 1.05 | 0.955 | 1.07 | 1.03 | 0.992 | 1.03 | 0.982 | 1.02 | 1.08
HOP-62 | 1.05 | 1.03 | 1.02 | 0.595 | 0.647 | 0.892 | 1.09 | 1.14 | 0.995 | 1.08
IA-LM | 1 | 0.837 | 0.701 | 0.273 | 0.129 | 0.931 | 0.914 | 0.898 | 0.953 | 1.13
LC-2-ad | 1.03 | 0.959 | 1.06 | 0.823 | 0.58 | 0.902 | 0.922 | 1.01 | 1.07 | 0.998
LCLC-97TM1 | 1.01 | 1.02 | 0.9 | 0.802 | 0.388 | 0.893 | 0.838 | 0.897 | 0.759 | 1.06
LCLC-103H | 1.03 | 0.95 | 0.964 | 0.785 | 0.624 | 0.989 | 0.903 | 0.925 | 1.02 | 0.896
LK-2 | 0.905 | 0.877 | 0.846 | 0.433 | 0.253 | 0.974 | 1.17 | 0.941 | 1.09 | 1.11
LOU-NH91 | 0.994 | 0.997 | 0.885 | 0.613 | 0.623 | 0.9 | 0.937 | 0.967 | 0.983 | 1.01
LU99A | 0.93 | 0.904 | 0.766 | 0.429 | 0.31 | 0.782 | 1.02 | 0.979 | 0.813 | 0.944
LXF-289 | 1.07 | 1.04 | 1 | 0.998 | 0.84 | 0.967 | 0.98 | 0.988 | 1.02 | 1.01
NCI-H23 | 1.05 | 0.863 | 0.835 | 0.372 | 0.335 | 0.848 | – | 0.874 | 0.995 | 1.12
NCI-H322M | 1.04 | 0.931 | 0.734 | 0.702 | 0.579 | 0.906 | 0.824 | 0.954 | 0.826 | 1.02
NCI-H358 | 0.914 | 0.895 | 0.834 | 0.413 | 0.272 | 0.785 | 0.829 | 0.812 | 0.755 | 0.925
